Measured values published in publication PMC11123991, “Novel 9-Methylanthracene Derivatives as p53 Activators for the Treatment of Glioblastoma Multiforme” (Molecules, 2024).

Experiments:
[1] = tested on: human glioblastoma cell line U87; test: MTT antiproliferative assay in U87 cells; format: cell-based; details: for inhibition at 10 µM / IC50: 72 h, MTT; for inhibition at 10 µM: triplicates, read-out: U87 (% Inhib. @ 10 µM); for IC50: mean ± SD (n = 3)
Method: (§1) U87, Hela, MCF-7, and HHL-5 cells were provided by Chinese Academy of Medical Sciences (Beijing, China). The cancer cells were cultured in DMEM media containing 10% heat-inactivated fetal calf serum. All cells were incubated at 37 °C in a 5% CO2 humidified atmosphere and harvested in the exponential growth phase for assays.
(§2) Cells were seeded in a 96-well plate and treated with the test substance at the desired concentration for 72 h. In cytotoxicity experiments, cells were treated with 10 µM of the test compound or 1 µM XI-011 and doxorubicin as positive controls. DMSO (1%) was used as a negative control. In the IC50 analysis, doxorubicin, XI-011, 13d, 13e, 14a, 14b, and, 14n were applied to HHL-5 at 50, 25, 10, 5, 2.5, 1.25, 0.625, 0.3125, and 0.15625 µM and U87 cells at 10, 7.5, 5, […], 1.25, 0.625, 0.3125, and 0.15625 µM, whereas 30, 10, 3, 0.5, and 0.1 µM were applied to Hela and MCF-7 cells. Treated cells were incubated with an MTT solution for 2 h and then with DMSO to dissolve the crystals. Absorbance was determined at 570 nm using a microplate reader (BioTek, Seattle, DC, USA). IC50 values were calculated using the Hill model in GraphPad Prism 8.0.2 software.

[2] = tested on: human cervical cancer cell line HeLa; test: MTT antiproliferative assay in HeLa cells; format: cell-based; details: Homo sapiens, 72 h, MTT, mean ± SD (n = 3)
Method: as §1, §2

[3] = tested on: human breast cancer cell line MCF-7; test: MTT antiproliferative assay in MCF-7 cells; format: cell-based; details: MCF7, 72 h, mean ± SD (n = 3)
Method: as §1, §2

[4] = tested on: HHL-5 human normal cell line; test: MTT cytotoxicity assay in normal HHL-5 cells; format: cell-based; details: for IC50: Homo sapiens, HHL-5, normal cell line, 72 h, MTT, mean ± SD (n = 3)
Method: as §1, §2

MDM4 = test: Western blot of MDM4 expression in U87 cells; format: cell-based, human; details: U87, 24 h, 0.5, 1 and 2 µM
Method: (§3) Protein levels in U87 cells treated with test compound 13e (0.5, 1, and 2 µM) for 24 h were measured by Western blot analysis as described previously. Briefly, after 13e treatment, cells were lysed in RIPA buffer. Proteins were separated by 8% SDS-PAGE and transferred to a PVDF membrane (Millipore, Billerica, MA, USA). The membrane was incubated with an anti-MDM4 antibody (A300-287A, Bethyl Laboratories, Montgomery, TX, USA), anti-p53 antibody (sc-126, Santa Cruz Biotechnology, Inc., Dallas, TX, USA), or anti-GAPDH antibody (AG019, Beyotime, Shanghai, China) followed by an HRP-linked secondary antibody (A0216, Beyotime) for 2 h. ECL reagent was used for chemiluminescent development. Densitometric analysis of protein bands was performed using ImageJ V.1.8.0 software.

p53 = test: Western blot of p53 expression in U87 cells; format: cell-based, human; details: U87, 24 h, 0.5, 1 and 2 µM
Method: as §3

U87 cells [5] = test: Flow cytometric cell cycle analysis in U87 cells; format: cell-based, human; details: U87, 24 h, 0.5, 1 and 2 µM
Method: Cells were cultured for 24 h in a 6-well plate, and then the test compound (0.5, 1, and 2 µM) was added to the culture medium. After treatment for 24 h, the cells were harvested and fixed at 4 °C overnight in an ethanol solution (80%). The cells were washed with PBS and stained with a PI solution ([…] in PBS). After 30 min, the cells were subjected to flow cytometry (C6; BD, Franklin Lakes, NJ, USA). The recorded cell fluorescence was used to analyze the cell cycle distribution.

U87 cells [6] = test: Flow cytometric apoptosis analysis in U87 cells; format: cell-based, human; details: 24 h
Method: Reducing MDM4 expression restores the p53 function and increases apoptotic cells. The apoptotic effects of compound 13e were determined in U87 cells by flow cytometry. […] 13e induced 21% apoptosis at 1 µM, which was slightly lower than the 23% apoptosis induced by XI-011. At 2 µM 13e, apoptosis was up to 25.9%. […] The mechanism by which 13e induces apoptosis in U87 cells may be related to its ability to downregulate MDM4 expression and stabilize p53 protein.

Compound | inhibition at 10 µM ([1]; Homo sapiens, U-87 MG) | also measured
Cc1ccc(CSC(=N)N)c2ccccc12 [12a] | 15.2% | –
N=C(N)SCc1cccc2ccccc12 [12b] | 9% | –
Cc1ccc(CSC(=N)N)cc1 [12c] | 11.8% | –
N=C(N)SCc1ccc([N+](=O)[O-])cc1 [12d] | 14.8% | –
N=C(N)SCc1ccc2ccccc2c1 [12e] | 1.5% | –
Cc1ccc(CSC(=N)NN)c2ccccc12 [12f] | 13.1% | –
N=C(NN)SCc1cccc2ccccc12 [12g] | 14.5% | –
CNC(=N)SCc1ccc(C)c2ccccc12 [12h] | 9.9% | –
CC(=O)NC(=N)SCc1ccc(C)c2ccccc12 [12i] | 2.7% | –
CC(=O)NC(=N)SCc1ccc(C)cc1 [12j] | 6.8% | –
N=C(NN)SCc1ccc2ccccc2n1 [12k] | 10.7% | –
CNC(=N)SCc1ccc2ccccc2n1 [12l] | 11.3% | –
Cc1c2ccccc2c(CSC(=N)NN)c2ccccc12 [13a] | 57.9% | fold more potency than 12f ([1]; U87 inhibition rate at 10 µM): approximately 4 fold
CC(=O)NC(=N)SCc1c2ccccc2c(C)c2ccccc12 [13b] | 19.3% | –
Cc1c2ccccc2c(CSC(=N)NC(=N)N)c2ccccc12 [13c] | 35.4% | –
CNC(=N)SCc1c2ccccc2c(C)c2ccccc12 [13d] | 93.3% | IC50 [1]: 1.62 ± 0.02 µM; IC50 ([1]; Homo sapiens, U-87 MG): < 2 µM; IC50 [2]: 5.66 ± 0.29 µM; IC50 [3]: 4.74 ± 0.2 µM; IC50 [4]: 0.85 ± 0.1 µM
Cc1c2ccccc2c(CSC(=N)N(C)N)c2ccccc12 [13e] | 88.6% | IC50 [2]: 1.63 ± 0.25 µM; IC50 [3]: 0.97 ± 0.11 µM; fold lesser toxicity to human normal HHL-5 cells than to U87 cells ([4]; HHL-5 IC50 versus U87 IC50): 2 fold; IC50 [4]: 1.11 ± 0.08 µM; MDM4 expression (MDM4): dose-dependent suppression of MDM4 expression; p53 protein expression (p53): significantly upregulated p53 protein expression; cell cycle effect (U87 cells [5]): arrested U87 cells in G2/M phase; apoptosis (U87 cells [6]; U87, 1 µM): 21%; apoptosis (U87 cells [6]; U87, 2 µM): 25.9%
CC(C)=NNC(=N)SCc1c2ccccc2c(C)c2ccccc12 [13f] | 65.1% | fold potency improvement in U87 cells compared with aryl-derived compounds ([1]; U87 inhibition rate at 10 µM): 3–4 fold
Cc1c2ccccc2c(CSc2ncc[nH]2)c2ccccc12 [13g] | 41.2% | –
Cc1c2ccccc2c(CSC2=NC(=O)CC(=O)N2)c2ccccc12 [13h] | 0.7% | –
CCOC(=O)c1cnc(SCc2c3ccccc3c(C)c3ccccc23)[nH]1 [13i] | 31.2% | –
Cc1c2ccccc2c(CSC(=N)Nc2ccccc2)c2ccccc12 [13j] | 13.3% | –
Cc1c2ccccc2c(CS/C(=N\c2ccccc2)Nc2ccccc2)c2ccccc12 [13k] | 28.1% | –
